The test system of assay [1] is cancer stem cell markers (CSV, LSD1p, PKC-θ and PDL1). As to the kind of experiment: Expression of cancer stem cell markers in MDA-MB-231 xenograft cells (confocal microscopy, TNFI/TCFI). Particulars: importinib4759 40 mg/kg, docetaxel 4 mg/kg. Type of assay: in vivo, Balb-c nude mice. The method, then: The effect of Importinib4759 on the expression of cancer stem cell markers in MDA-MB-231 xenograft breast cancer cells from Balb-c nude mice was evaluated using confocal laser scanning microscopy.
MDA-MB-231 xenograft breast cancer cells from Balb-c nude mice were treated and prepared as per the method of Example 7. Test compounds included control (saline), docetaxel (4 mg/kg), importinib4759 (40 mg/kg; synthesized in accordance with Example 1) or a combination of importinib4759 (40 mg/kg) and docetaxel (4 mg/kg). The single cell suspensions were fixed with 3.7% formaldehyde and permeabilized with 2% Triton-X-100 and were then probed with primary mouse antibodies to CSV, primary goat antibodies to PDL1 and primary rabbit antibodies to phosphorylated LSD1 (LSD1p; lysine-specific histone demethylase 1A) or PKC-θ followed by the corresponding secondary antibody conjugated to anti mouse Alexa-Fluor 568, anti-goat Alexa-Fluor 633 or anti-rabbit Alexa-Fluor 488. The cell nucleus was stained with anti-fade DAPI. TNFI (Total Nuclear Fluorescence Intensity) or TCFI (Total Cytoplasmic Fluorescence Intensity) values were calculated for at least 20 individual cells per sample. Data shown represent the mean±SE grouped into time point of collection.

Assay [2] has as its system M1 macrophage markers (LSD1p, CCR7 and CD38). The assay is described as follows: Expression of M1 macrophage markers in MDA-MB-231 xenograft cells (confocal microscopy, TNFI/TCFI). Type of assay: in vivo, Balb-c nude mice. Particulars: importinib4759 40 mg/kg, docetaxel 4 mg/kg. The method, then: (§1) The effect of Importinib4759 on the expression of cancer associated fibroblast (CAF) and macrophage in MDA-MB-231 xenograft breast cancer cells from Balb-c nude mice was evaluated using confocal laser scanning microscopy. MDA-MB-231 xenograft breast cancer cells from Balb-c nude mice were treated and prepared as per the method of Example 7. Test compounds included control (saline), docetaxel (4 mg/kg), importinib4759 (40 mg/kg; synthesized in accordance with Example 1) or a combination of importinib4759 (40 mg/kg) and docetaxel (4 mg/kg). The single cell suspensions were fixed with 3.7% formaldehyde and permeabilized with 2% Triton-X-100 and were then probed with a set of CAF signature antibodies [primary mouse antibodies to FAP (fibroblast activation protein), primary goat antibodies to CCL2 (chemokine (C-C motif) ligand 2) and primary rabbit antibodies to LSD1 (lysine-specific histone demethylase 1A; a target of PKC-θ)] or M1 macrophage markers [primary mouse antibodies to CCR[…] chemokine receptor type 7), primary goat antibodies to CD38 (cluster of differentiation 38) and primary rabbit antibodies to LSD1p (a target of PKC-θ)], followed by the corresponding secondary antibody conjugated to anti mouse Alexa-Fluor 568, anti-goat Alexa-Fluor 633 or anti-rabbit Alexa-Fluor 488. […] TNFI or TCFI values were calculated for at least 20 individual cells per sample. […]

Assay [3] relates to CAF markers (FAP, LSD1 and CCL2). The assay is described as follows: Expression of CAF markers in MDA-MB-231 xenograft cells (confocal microscopy, TNFI/TCFI). Particulars: importinib4759 40 mg/kg, docetaxel 4 mg/kg. Type of assay: in vivo, Balb-c nude mice. The method, then: as §1
Assay [4] addresses T1, PKC-θ (Homo sapiens, UniProt Q04759).
T1 construct: endogenous in cells; host or cells: MCF7
The assay is described as follows: Nuclear localization of PKC-θ (PKC-θ-phosphor-T538 antibody) in MCF7 cells treated with peptide inhibitors of other PKC isoforms. Type of assay: cell-based. Particulars: 50 μM peptide inhibitor 24 hr, PMA 0.65 ng/mL 60 hr, N-myristoylated. The method, then: nPKC-β1, nPKC-ε and nPKC-δ peptide inhibitors were designed based on the nuclear localization signal of PKC-β1, PKC-ε and PKC-δ respectively. These peptides were synthesized and N-myristoylated using the method of Example 1.
MCF7 cells were pre-seeded overnight on sterile coverslips in 12 well plates with 1 mL of completed DMEM before inhibiting with 50 μM of nPKC-β1, nPKC-ε or nPKC-δ peptide inhibitor respectively for 24 hr. Inhibitors were not removed when MCF7 cells were stimulated with 0.65 ng/mL of PMA for 60 hr. DEPC-water was used for control (test peptides were dissolved in sterile DEPC-water). After washing with DPBS twice, samples on coverslips were fixed with 4% paraformaldehyde for 10 minutes and stained with PKC-θ-phosphor-T538 primary Antibody and conjugated Alexa-488 secondary Antibody. Cell nucleus was stained with anti-fade DAPI. When samples were dried overnight, Nikon fluorescence microscopy was used to take photos. ImageJ software was used for densimetric analysis. Fn/c was calculated using the formula: Fn/c=(nuclear density-background density)/(cytoplasmic density-background density).

Assay [5] has as its target T1, PKC-θ. As to the kind of experiment: Nuclear translocation of PKC-θ in PMA-stimulated MCF7 cells (immunofluorescence, Fn/c). In kind it is cell-based. Particulars: 50 μM peptide 24 hr, then PMA 0.65 ng/mL 60 hr, N-myristoylated peptides, p<0.0001 relative to control. The method, then:
MCF7 cells were pre-seeded overnight on sterile coverslips in 12 well plates with 1 mL of completed Dulbecco's modified eagle medium (DMEM) before incubating with 50 μM of importinib4759 (synthesized in accordance with Example 1) and importinib4759_O1 (synthesized in accordance with Example 1) for 24 hr. Test peptides were not removed when MCF7 cells were stimulated with 0.65 ng/mL of phorbol 12-myristate 13-acetate (PMA) for 60 hr. Diethylpyrocarbonate (DEPC)-water was used for control (test peptides were dissolved in sterile DEPC-water). After wash with Dulbecco's phosphate buffered saline (DPBS) twice, samples on coverslips were fixed with 4% paraformaldehyde for 10 minutes and stained with PKC-θ (Cat. SC-212), PKC-θ-Phosphor-T538, PKC-β2, PKC-α, Importin α, or Importin 8 primary Antibody respectively and conjugated Alexa-488 secondary Antibody. Cell nucleus was stained with anti-fade 2-(4-amidinophenyl)-6-indolecarbamidine dihydrochloride (DAPI). When samples were dried overnight, Nikon fluorescence microscopy was used to take photos. ImageJ software was used for densimetric analysis. Fn/c was calculated using the formula: Fn/c=(nuclear density-background density)/(cytoplasmic density-background density).

The next assay relates to MCF7 cells. The assay is described as follows: CD44hiCD24lo cancer stem cell formation in MCF-IM model (FACS). In kind it is cell-based, human. Particulars: importinib4759 5004 and 100 μM, importinib4759_O1 2504 and 50 μM, 24 hr before PMA 60 hr, p=0.0079 relative to control. The method, then:
(§2) 5×10^4 MCF7 cells were seeded with 1 mL of complete DMEM in 12 well plates overnight, then importinib4759 (5004 and 100 μM; synthesized in accordance with Example 1) or importinib4759_O1 (2504 and 50 μM; synthesized in accordance with Example 1) were used to treat cells for 24 hr before stimulation with PMA for 60 hr. Samples were harvested by trypsinization followed by washing with DPBS containing 2% heat inactivated foetal bovine serum (HI-FBS). FACS staining were performed using anti-human CD44-APC, anti-human CD24-PE, Hoechst, and anti-human EpCAM antibody cocktails. Data was collected from BD FACSLSR-II flow cytometer. Treestar FlowJo was used for data analysis.

The next assay deals with MDA-MB-231 xenograft. As to the kind of experiment: Balb/c-nude MDA-MB-231 xenograft breast cancer model: tumor volume and cancer stem cell proportion. Type of assay: in vivo, balb/c-nude mice. The method, then: A Balb/c-nude MDA-MB-231 xenograft breast cancer model was utilized to determine the effect of the importinib peptides alone and in combination with the chemotherapeutic, docetaxel in comparison to a randomized peptide control.
Five week old balb/c-nude mice (n=5 per test compound) were injected with MDA-MB-231 human breast carcinoma cell suspensions (2×10^6 cells in 25 μL PBS mixed with 25 μL of BD Matrigel Matrix) subcutaneously into the right mammary gland. Test compounds in a saline vehicle [4 mg/kg docetaxel; 8 mg/kg, 40 mg/kg and 60 mg/kg importinib4759 or importinib4759_O1 (synthesized in accordance with Example 1); 4 mg/kg docetaxel with 8 mg/kg importinib4759 or importinib4759_O1; 4 mg/kg docetaxel with 40 mg/kg importinib4759 or importinib4759_O1; 4 mg/kg docetaxel with 60 mg/kg importinib4759 or importinib4759_O1; or randomized peptide control] were injected intraperitoneally. Tumor volume was assessed using calipers daily over a period of five weeks following treatment. Animals were sacrificed after the five week period. Tumor grafts were removed using resection and processed into single cell suspensions. The percentage of cancer stem cells was determined using FACS analysis. FACS staining was performed using anti-human CD44-APC, anti-human CD24-PE, Hoechst, and anti-human EpCAM antibody cocktails. Data was collected from BD FACSLSR-II flow cytometer. Treestar FlowJo was used for data analysis. Significance was determined using a one-way ANOVA or Mann-Whitney T-test.

The subject of a further assay is MDA-MB-231 cells. The assay is described as follows: CD44hiCD24lo cancer stem cells in MDA-MB-231 model (FACS). Type of assay: cell-based, human. Particulars: 50 μM or 100 μM importinib4759, 48 hr, p<0.0001 relative to control. The method, then:
as §2, with “5×10^4 MDA-MB-231” for “5×10^4 MCF7”, “for 48” for “for 24”, “before samples” for “before stimulation with PMA for 60 hr. Samples”, “2% HI-FBS.” for “2% heat inactivated foetal bovine serum (HI-FBS).”, “staining was” for “staining were”

Ends that are not written are not given here. * marks the point of attachment. Myristoyl = CCCCCCCCCCCCCC(=O)*

T1 sequence (Q04759 whole entry): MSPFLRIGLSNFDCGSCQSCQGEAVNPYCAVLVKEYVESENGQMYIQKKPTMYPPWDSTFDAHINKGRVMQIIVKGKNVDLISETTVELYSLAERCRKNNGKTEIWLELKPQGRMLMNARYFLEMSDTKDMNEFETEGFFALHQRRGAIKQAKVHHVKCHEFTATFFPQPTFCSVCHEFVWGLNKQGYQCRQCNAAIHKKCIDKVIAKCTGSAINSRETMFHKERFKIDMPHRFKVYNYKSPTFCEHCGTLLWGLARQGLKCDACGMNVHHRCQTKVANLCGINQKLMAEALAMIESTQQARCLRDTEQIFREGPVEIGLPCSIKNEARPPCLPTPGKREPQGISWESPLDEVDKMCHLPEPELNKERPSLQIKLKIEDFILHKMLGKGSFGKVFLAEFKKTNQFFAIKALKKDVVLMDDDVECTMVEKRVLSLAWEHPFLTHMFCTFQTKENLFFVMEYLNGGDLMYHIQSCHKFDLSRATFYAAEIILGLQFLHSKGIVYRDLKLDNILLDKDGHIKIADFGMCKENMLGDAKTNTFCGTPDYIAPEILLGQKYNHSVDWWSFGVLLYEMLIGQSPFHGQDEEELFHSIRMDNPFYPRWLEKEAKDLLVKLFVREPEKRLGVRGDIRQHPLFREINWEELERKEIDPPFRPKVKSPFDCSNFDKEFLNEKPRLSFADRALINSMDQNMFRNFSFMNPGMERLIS

`CC(=O)O[C@@]12CO[C@@H]1C[C@H](O)[C@@]1(C)C(=O)[C@H](O)C3=C(C)[C@@H](OC(=O)[C@H](O)[C@@H](NC(=O)OC(C)(C)C)c4ccccc4)C[C@@](O)([C@@H](OC(=O)c4ccccc4)[C@H]21)C3(C)C` [docetaxel, reference compound]: the “expression of cancer stem cell markers (CSV, LSD1p, PKC-θ, PDL1)” value in assay [1] is “increased expression of cancer stem cell markers”. Besides, the “expression of M1 macrophage markers (LSD1p, CCR7, CD38; docetaxel result stated for CCR7 and CD38)” value in assay [2] is reported as “unaffected”. Also, the “expression of CAF markers (FAP, LSD1np, CCL2)” value in assay [3] was “significantly increased the expression of CAF markers”.
For “KKIKPPFKPRIKTKR (Myristoyl-KKIKPPFKPRIKTKR) [nPKC-ε]”, the “effect on nuclear localization of PKC-θ” value with PKC-θ [4] was “had no effect”.
As for KRRLEPPFRPKVK [nPKC-δ], the “effect on nuclear localization of PKC-θ” value with PKC-θ [4] is on record as “had no effect”.
“RKEIDPPFRPKVK-OH (Myristoyl-RKEIDPPFRPKVK-OH; SMILES CCCCCCCCCCCCCC(=O)N[C@@H](CCCNC(=N)N)C(=O)N[C@@H](CCCCN)C(=O)N[C@@H](CCC(=O)O)C(=O)N[C@H](C(=O)N[C@@H](CC(=O)O)C(=O)N1CCC[C@H]1C(=O)N1CCC[C@H]1C(=O)N[C@@H](Cc1ccccc1)C(=O)N[C@@H](CCCNC(=N)N)C(=O)N1CCC[C@H]1C(=O)N[C@@H](CCCCN)C(=O)N[C@H](C(=O)N[C@@H](CCCCN)C(=O)O)C(C)C)[C@@H](C)CC) [Importinib4759, tested N-myristoylated]”: the “expression of cancer stem cell markers (CSV, LSD1p, PKC-θ, PDL1)” value in assay [1] was “significantly abrogated expression of cancer stem cell markers”. Besides, the “blocking of nuclear PKC-θ (nuclear translocation)” value with PKC-θ [5] was “capable of blocking nuclear PKC-θ”. Besides, the “expression of M1 macrophage markers (LSD1p, CCR7, CD38; docetaxel result stated for CCR7 and CD38)” value in assay [2] is recorded as “augmented”. The “cancer stem cell (CD44hiCD24lo) formation” value in the assay on MCF7 cells is listed as “inhibited”. In the assay on MDA-MB-231 xenograft (FACS of resected tumor grafts after five weeks), the “cancer stem cell (CD44highCD24low) population in tumor grafts” value is recorded as “significantly abrogating the cancer stem cell population”. The “tumor volume in comparison to the control or docetaxel treatment alone” value in the assay with MDA-MB-231 xenograft (intraperitoneal, peptide 8, 40 and 60 mg/kg, docetaxel 4 mg/kg, five weeks) is on record as “abrogating tumor volume”. Besides, in the assay with MDA-MB-231 xenograft (intraperitoneal, peptide 8, 40 and 60 mg/kg, docetaxel 4 mg/kg, five weeks, n=5), the “tumor volume over time” value was “significantly reduced tumor volume over time”. For the same compound, the “expression of CAF markers (FAP, LSD1np, CCL2)” value in assay [3] is listed as “abrogated expression of CAF markers”. In the assay with MDA-MB-231 cells, the “reduction of CD44hiCD24lo cancer stem cells” value was “Significant reduction of cancer stem cells”.
Take “RKEIQPPYKPKAR (Myristoyl-RKEIQPPYKPKAR) [nPKC-β1]”: the “effect on nuclear localization of PKC-θ” value with PKC-θ [4] was “had no effect”.
